Laboratory results: patent US20220378744A1, “COMPOUNDS FOR TREATING PROLIFERATOR-ACTIVATED RECEPTORS (PPAR) MEDIATED DISEASES OR CONDITIONS” (MEDIPURE PHARMACEUTICALS INC., priority 2021, published 2022)

Key:
[1] = system: IMQ-induced psoriasis in BALB/c mice; test: IMQ-induced psoriasis model in BALB/c mice, topical creams, PASI score; type: in vivo; conditions: for tolerability in mice / visual damage on the skin: topical, seven-day consecutive treatment; for tolerability in mice: even at 10% creams; for visual damage on the skin: up to 10% creams
Method: The animal experiment is conducted in accordance with the Guidelines for the Institutional Animal Care and Use Committee. Both male and female BALB/c mice from Rodenta Bioserve, India, at 7-8 weeks of age and 20-25 gram of body weight are housed in a laboratory environment with constant temperature (24.0±1.0° C.) and relative humidity (45.0-55.0%) on a 12 h light/dark cycles. These animals are provided free access to unlimited amounts of food and water during the entire experiment. The animals are divided into 12 groups of 8 mice each and shaved on the back on day 0 for an area of 2×2 cm . Human-like psoriasis in mice is induced by topical application of 5% Imiquimod (IMQ) procured from AK Scientific, USA, and formulated in the base cream at desired percentages in-house, in shaved area and right ear (0.5×0.5 cm). […] Vehicle, clobetasol propionate (CP, Sigma. 0.05% w/w; positive control), test creams, and CBD (Ilesol Pharmaceuticals), respectively, is applied topically on both the shaved back (80 mg cream) and the right ear (20 mg cream) of mice, once daily from day 10 to day 16. The study ends at day 17. At stated time points the severity of psoriasis is evaluated using the PASI score (Psoriasis Area Severity Index: sum of erythema, scaling and thickening, scored independently from 0 to 4 for each mouse; max PASI score=12). Tissue and blood samples are collected for histopathology, biochemistry and immunoassay from each animal at various points.

[2] = system: TNFα/IL-17A-stimulated HaCaT cells; test: Anti-inflammatory effect of combined test compounds (Abn-CBD/CBD and PPAR agonists) in TNFα/IL-17A-stimulated HaCaT cells; type: cell-based, human
Method: HaCaT cells were maintained as described above in DMEM high glucose (4.5 g/L) medium supplemented with 10% FBS and 1% (v/v) penicillin/streptomycin solution (Invitrogen, Thermo Fisher) and kept in an incubator at 37° C. with 5% CO2. For experiments the cells were seeded at 5×10^4 cells/well in 0.5 mL of medium to a 24-well culture plate (Nunc, Thermo Fisher) and incubated overnight. The old medium in the culture plates was discarded and the corresponding stimulant, TNFα/IL-17A (R&D Systems) at 2 ng/mL each, with or without test chemicals in 0.5 mL of fresh medium was added to each cell well in the plate. There were duplicate wells for each treatment. The plate was incubated for another 24 h and the supernatant was collected for cytokine analysis, namely IL-6 and IL-8, using ELISA kits (Thermo Fisher).

[3] = system: IMQ-stimulated HaCaT cells; test: Anti-inflammatory effect, IMQ-stimulated HaCaT cell model (IL-6, IL-8 ELISA); type: cell-based, human; conditions: IMQ 50 μM, 24 h, vs control
Method: (§1) Three in vitro models based on HaCaT cell culture were tested. HaCaT cells were maintained as described above in DMEM high glucose (4.5g/L) medium supplemented with 10% FBS and 1% (v/v) penicillin/streptomycin solution (Invitrogen, Thermo Fisher) and kept in an incubator at 37° C. with 5% CO2. For experiments, the cells were seeded at 5×10^4 cells/well in 1 mL of medium to a 24-well culture plate (Nunc, Thermo Fisher) and incubated overnight.
(§2) (1) For the imiquimod (IMQ)-stimulated HaCaT model, IMQ (Alfa Aesar) at 50 μM final concentration was used in the experiments; (2) for TNFα/IL-17A-stimulated-HaCaT model, 2 ng/mL of each cytokine (R&D Systems) was used; and (3) for the lipopolysaccharide (LPS, Sigma) simulated HaCaT cell model, 20 μg/mL LPS was used. For drug chemical treatment the old medium in the culture plates described above was discarded and the corresponding stimulant (IMQ, TNFα/IL-17A, or LPS) with or without test chemicals in 0.5 mL fresh medium was added to each cell well. There were duplicate wells for each treatment. The plate was incubated for another 24 h and the supernatant was collected for cytokine analysis, namely IL-6 and IL-8, using the corresponding ELISA kits (Thermo Fisher).

human PPARα (NR1C1) = target: T1, human PPARα (NR1C1) (Homo sapiens, UniProt Q07869); test: Cell-based human PPARα transactivation (nuclear receptor reporter) assay; conditions: luciferase reporter cells, 24 h treatment, FIG. 1
T1 sequence (Q07869 1-468): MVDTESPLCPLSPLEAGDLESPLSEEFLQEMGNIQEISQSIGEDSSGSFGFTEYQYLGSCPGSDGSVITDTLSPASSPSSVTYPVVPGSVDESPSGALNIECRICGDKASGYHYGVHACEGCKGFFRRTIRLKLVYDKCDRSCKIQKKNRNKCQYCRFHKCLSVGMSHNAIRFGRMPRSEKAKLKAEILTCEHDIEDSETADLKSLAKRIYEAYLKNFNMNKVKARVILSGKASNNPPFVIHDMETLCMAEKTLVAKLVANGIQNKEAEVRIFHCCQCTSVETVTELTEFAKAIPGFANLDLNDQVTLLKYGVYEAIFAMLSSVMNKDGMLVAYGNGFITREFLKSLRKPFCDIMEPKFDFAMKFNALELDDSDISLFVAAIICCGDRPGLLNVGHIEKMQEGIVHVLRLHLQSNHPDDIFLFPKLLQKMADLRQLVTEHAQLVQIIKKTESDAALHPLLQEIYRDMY
Method: (§3) The assay was performed using cell-based human PPAR nuclear receptor reporter assay kits (NR1C1 for PPARα; NR1C2 for PPARδ/β, and NR1C3 for PPARγ, Indigo Biosciences) by following the manufacturer's instruction. In brief, PPAR reporter cells were added to CRM medium (Indigo Biosciences), seeded into wells of a 96-well culture plate and incubated for 5 hours in a cell culture incubator at 37° C. with 5% CO2. The medium was then removed, and the cells were treated with test compounds at different concentrations in CSM medium (Indigo Biosciences) for 24 h inside the incubator. […] DMSO (Sigma) at 0.1% (v/v) was used as negative baseline control (C). Each treatment was tested in duplicate wells. At the end point of the experiments, the treatment medium was discarded and Luciferase Detection Reagent (Indigo Biosciences) was added. Following a 10-minute rest period, the intensity of light emission (in units of “Relative Light Units; RLU”) from each assay well was quantified using a plate-reading luminometer (Synergy H1 plate reader, BioTek). In addition, live cell multiplex assay (Indigo Biosciences) was combined with the activation assays to detect potential cytotoxic effect, if any, of the test chemicals to normalize the signals as per manufacturer's instruction.

[4] = system: LPS-stimulated HaCaT cells; test: Anti-inflammatory effect, LPS-stimulated HaCaT cell model (IL-6, IL-8 ELISA); type: cell-based, human; conditions: LPS 20 μg/mL, 24 h
Method: as §1
as §2, with “Fisher). The experiments were repeated independently to confirm the observation.” for “Fisher).”

human PPARγ (NR1C3) = target: T2, human PPARγ (NR1C3) (Homo sapiens, UniProt P37231); test: Cell-based human PPARγ transactivation (nuclear receptor reporter) assay; conditions: FIG. 3
T2 sequence (P37231 1-505): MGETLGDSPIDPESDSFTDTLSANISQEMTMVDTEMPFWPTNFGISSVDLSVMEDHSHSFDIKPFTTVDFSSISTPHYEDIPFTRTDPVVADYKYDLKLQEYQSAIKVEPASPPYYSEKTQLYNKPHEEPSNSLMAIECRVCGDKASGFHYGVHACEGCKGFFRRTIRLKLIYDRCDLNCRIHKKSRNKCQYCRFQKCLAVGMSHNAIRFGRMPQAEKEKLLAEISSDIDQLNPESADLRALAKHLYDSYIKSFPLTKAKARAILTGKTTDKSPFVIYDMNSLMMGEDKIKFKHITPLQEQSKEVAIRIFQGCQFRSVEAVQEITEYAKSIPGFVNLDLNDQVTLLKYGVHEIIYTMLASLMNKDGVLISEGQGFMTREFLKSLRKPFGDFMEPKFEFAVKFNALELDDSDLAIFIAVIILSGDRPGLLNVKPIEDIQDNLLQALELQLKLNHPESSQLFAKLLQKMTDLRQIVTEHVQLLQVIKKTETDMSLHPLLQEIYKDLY
Method: as §3

human PPARδ/β (NR1C2) = target: T3, human PPARδ/β (NR1C2) (Homo sapiens, UniProt Q03181); test: Cell-based human PPARδ/β transactivation (nuclear receptor reporter) assay; conditions: at tested concentrations
T3 sequence (Q03181 1-441): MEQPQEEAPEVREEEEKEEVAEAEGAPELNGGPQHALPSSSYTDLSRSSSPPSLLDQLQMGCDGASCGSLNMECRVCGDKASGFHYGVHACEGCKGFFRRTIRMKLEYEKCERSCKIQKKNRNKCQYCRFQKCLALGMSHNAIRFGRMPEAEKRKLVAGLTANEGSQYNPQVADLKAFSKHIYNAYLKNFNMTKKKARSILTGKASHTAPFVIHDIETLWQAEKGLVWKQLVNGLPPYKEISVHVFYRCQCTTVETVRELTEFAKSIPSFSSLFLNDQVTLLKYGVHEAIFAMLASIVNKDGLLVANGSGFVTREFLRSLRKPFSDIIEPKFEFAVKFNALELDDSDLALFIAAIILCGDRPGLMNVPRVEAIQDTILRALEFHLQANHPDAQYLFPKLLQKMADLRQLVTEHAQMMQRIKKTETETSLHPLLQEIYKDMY
Method: as §3

[5] = initial studies, range 1 to 30 μM, HaCaT model
[6] = creams at 1% and 5%, once daily day 10 to day 16, FIG. 11

C=C(C)[C@@H]1CCC(C)=C[C@H]1c1c(O)cc(CCCCC)cc1O [CBD, cannabidiol, reference compound] was tested, and the tolerability in mice [1] was “well tolerated”, the “visual damage on the skin” value [1] was “No visual damage” and the HaCaT growth ([2]; at higher concentrations, e.g. 30 μM) was “inhibit HaCaT growth”. For the same compound, the “production of IL-6” value [2, 5] was “reduced” and the “production of IL-8” value [2, 5] was “reduced”.
CCCc1cc(C(=O)c2ccc(F)cc2)ccc1OCCCOc1ccc2c(cnn2CC(=O)OC)c1 [MP-152, methyl 2-(5-(3-(4-(4-fluorobenzoyl)-2-propylphenoxy)nropoxy)-1H-indazol-1-yl)acetate] was tested, and the “production of IL-6” value ([3]; compound at 2.5 μM) was “significantly inhibited”, the “production of IL-6” value ([3]; compound at 25 μM) was “significantly inhibited” and the “PPARα transactivation: concentration at which (or starting at which) active” value (human PPARα (NR1C1)) was 1 µM. The “reducing the PASI score compared with CP” value [1, 6] was “more effective than CP”, the “reducing the PASI score, rank among the treatment groups” value [1, 6] was “most active” and the tolerability in mice [1] was “well tolerated”. For the same compound, the “visual damage on the skin” value [1] was “No visual damage”, the “reduction of IL-8 production compared with rosiglitazone and fenofibrate” value ([4]; 25 μM) was “more active” and the “production of IL-6” value ([4]; compound at 25 uM) was “reduced”. For the same compound, the “PPARγ transactivation: concentration at which (or starting at which) active” value (human PPARγ (NR1C3)) was 1,000 nM.
CSc1ccc(C(=O)/C=C/c2cc(C)c(OC(C)(C)C(=O)O)c(C)c2)cc1 [elafibranor] was tested, and the PPARδ/β transactivation activity (human PPARδ/β (NR1C2)) was “showed activities”.
CCO[C@@H](Cc1ccc(OCCn2c(C)ccc2-c2ccc(SC)cc2)cc1)C(=O)O [saroglitazar] was tested, and the PPARδ/β transactivation activity (human PPARδ/β (NR1C2)) was “showed activities”.
